Data set [1] is described as follows: Toxicity upon intraperitoneal administration. The conditions noted are these: mouse, in vivo, ip.
Data set [2] in a line: Blood glucose and organ glycogen upon predetermined (2.5 h) cold treatment (adaptation experiment). The format is in vivo, mice. The conditions noted are these: no adaptation, preparation 1 hour prior to the testing effect, 2.5 h at -14° C.
A short description of another data set: Solubility. In kind it is physicochemical.

Results on one compound are retold here after patent US4691046A, “Butanedioic acid mono [(2-dimethylamino] ethyl ester)succinate” (Institut Organicheskoi Khimii Ordena Lenina I Ordena …, priority 1986, dated 1987).

Regarding `CN(C)CCOC(=O)CCC(=O)O` [Compound of this invention, butanedioic acid mono[(2-dimethylamino)ethyl ester]succinate], the LD50 (as a rule, the dose at which mortality reaches 50%) in data set [1] came to 3040 mg/kg. For the same compound, in data set [2] (control 1.7 ± 0.2), the “Glycogen, heart” value came out at 2.2 ± 3.4 mg/g. Also, the “Glycogen, liver” value in data set [2] (control 6.7 ± 0.4) is 7.1 ± 2.6 mg/g. Further, the Blood glucose in data set [2] (control 37 ± 6) stood at 59 ± 2.6 mg. %. In the data set “Solubility” (acetone), the solubility in acetone result is “sparingly soluble”. Besides, the solubility in ethanol entry in the data set “Solubility” (ethanol) is recorded as “sparingly soluble”. The solubility in water result in “Solubility” (water) is “well soluble”.
